The values that follow come from US7390910B2, “Compounds for treating tumors” (priority 2003, dated 2008).

Assay [1] relates to bovine microtubule-associated protein (MAP)-rich tubulin. The format is biochemical. A digest of the protocol: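 MAP-rich bovine tubulin at 1.5 mg/ml final was dissolved in cold PEM buffer (80 mM Na-PIPES pH 6.9, 1 mM MgCl2, 1 mM EGTA) with 1 mM GTP, then centrifuged at 12,000×g for 10 min at 4° C. Aliquots of 100 μl were added quickly to a low-volume 96-well plate holding duplicate 10 μl compound samples. Absorbance at 340 nm was read each minute for 60 min at 24° C.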

The subject of a further assay is Colo205. Kind of assay: Cell survival assay (SRB), Colo205. The conditions noted are these: Homo sapiens, COLO 205, 72 h, Colo205 cells, 3 days. Format: cell-based. Here is the method: (§1) Cell Survival Assay: Standard Pharmacological Test Procedure. […] Compounds are incubated with cells for 3 days.
A further assay deals with KBV1. As to the kind of experiment: cells. The format is cell-based. The settings on record: for inhibition at 3 µM: KB-V1, 3000 nM; for IC50: 3 days, SRB. On the procedure: as §1
The test system of the next assay is KB85. As to the kind of experiment: cells. The conditions noted are these: for IC50: 3 days, SRB. Format: cell-based. Here is the method: as §1
A further assay relates to KB cells. Kind of assay: cells. The format is cell-based. The settings on record: for IC50: 3 days, SRB; for inhibition at 3 µM: 3000 nM. Here is the method:
as §1

The subject of assay [2] is Human Melanoma Carcinoma Lox. Kind of assay: Growth of tumors in nude mice (LOX xenograft). The format is in vivo, athymic nu/nu female mice. An excerpt: Growth of Tumors in Nude Mice. […] A p-value ≦0.05 indicates a statistically significant reduction in relative tumor growth of treated group compared to that of the vehicle control group.
For another assay, the system named is LOX. As to the kind of experiment: Cell survival assay (SRB), LOX. Format: cell-based, human. The conditions noted are these: Homo sapiens; LOX cells. Here is the method:
as §1

The structures appear in SMILES notation. Marks after values point to notes of the source that are not given here. *1 amine or outer side, *2 acyl side, *3 side chain or, on linkers, in order; H or OH if unused. Where a SMILES comes first, the peptide text is derived from it. [ ]: non-standard residue; d: D form. The star is where a group is joined. NMePhe(β,β-Me2) = CN[C@H](C(=O)O)C(C)(C)c1ccccc1; X1 = C/C(=C\[C@H](C(C)C)N(C)[*:1])C(=O)[*:2]; Tle = CC(C)(C)[C@H](N)C(=O)O; NHBn = c1ccc(CN*)cc1 Some results are limits rather than exact numbers.

Take `CN[C@H](C(=O)N[C@H](C(=O)N(C)[C@H](/C=C(\C)C(=O)N1CCC[C@@H]1C(=O)N1CCC[C@@H]1C(=O)NCc1ccccc1)C(C)C)C(C)(C)C)C(C)(C)c1ccccc1` [Example 28, 1-{(2E,4S)-2,5-dimethyl-4-[methyl(N-methyl-3-phenyl-L-valyl-3-methyl-L-valyl)amino]hex-2-enoyl}-D-prolyl-N-benzyl-D-prolinamide] (H-[NMePhe(β,β-Me2)][Tle][X1][dP][dP]-NHBn): in assay [1], the “Tubulin Polym. % inhibition at 0.3 uM” value is 56(3) %. The IC50 is 0.25 nM in the assay with Colo205; 21.9 nM in the assay on KB85 (72 h); 1.07 nM in the assay with KB cells (Homo sapiens, KB, 72 h). In the assay with KBV1 (Homo sapiens), the inhibition at 3 µM is 14%. Further, the “% T/C on day 7” value in assay [2] (10 mg/kg IV on days 1, 5, 9) was found to be 10%. The “% T/C on day 10” value in assay [2] (10 mg/kg IV on days 1, 5, 9, day 10) came to 4%.

Regarding `CO[C@H](C(=O)N[C@H](C(=O)N(C)[C@H](/C=C(\C)C(=O)O)C(C)C)C(C)(C)C)C(C)(C)c1ccccc1` [Example 105, (E,4S)-4-[{N-[(2S)-2-methoxy-3-methyl-3-phenylbutanoyl]-3-methyl-L-valyl}(methyl)amino]-2,5-dimethyl-2-hexenoic acid], in assay [1], the “Tubulin Polym. % inhibition at 0.3 uM” value was determined as 64%. In addition, the IC50 with Colo205 amounted to 1740 nM; in the assay with KB cells (Homo sapiens, KB, 72 h) it was 2690 nM; in the assay with LOX, 1740 nM. Moreover, the inhibition at 3 µM in the assay with KBV1 (Homo sapiens) stood at 0%; in the assay on KB85 (3000 nM) it was 21%; with KB cells (Homo sapiens, 72 h) it was 43%.

On to `CN[C@H](C(=O)N[C@H](C(=O)N(C)[C@H](/C=C(\C)C(=O)N1CCC[C@H]1[C@H](OC)[C@@H](C)C(=O)N[C@@H](Cc1ccccc1)c1nccs1)C(C)C)C(C)(C)C)C(C)(C)c1ccccc1` [Example 29], for which, in assay [1], the “Tubulin Polym. % inhibition at 0.3 uM” value is reported as 62%. The IC50 in the assay with KBV1 came to 180 nM; with KB85, 4.1 nM; in the assay on KB cells, 0.75 nM. Moreover, in assay [2] (10 mg/kg IV on days 1, 5, 9), the “% T/C on day 7” value is listed as 14%. Also, the “% T/C on day 9” value in assay [2] (10 mg/kg IV on days 1, 5, 9, day 9) is given as 9%.

Regarding `CN[C@H](C(=O)N[C@H](C(=O)N(C)[C@H](/C=C(\C)C(=O)N1CCN(C)CC1)C(C)C)C(C)(C)C)C(C)(C)c1ccccc1` [Example 26, N,β,β-trimethyl-L-phenylalanyl-N^1-[(1S,2E)-1-isopropyl-3-methyl-4-(4-methyl-1-piperazinyl)-4-oxo-2-butenyl]-N^1,3-dimethyl-L-valinamide], the “Tubulin Polym. % inhibition at 0.3 uM” value in assay [1] is on record as 71(2) %. For the same compound, the IC50 in the assay on KBV1 (Homo sapiens, KB-V1, 72 h) was determined as 2330 nM; in the assay with KB85 (72 h) it was 60 nM; in the assay on KB cells (Homo sapiens, KB, 72 h), 33 nM; in the assay on LOX, 46 nM. In addition, in assay [2] (15 mg/kg IV on days 1, 5, 9), the “% T/C on day 7” value is on record as 4%.

`CN[C@H](C(=O)N[C@H](C(=O)N(C)[C@H](/C=C(\C)C(=O)N1CCC[C@H]1[C@H](OC)[C@@H](C)C(=O)OC)C(C)C)C(C)(C)C)C(C)(C)c1ccccc1` [Example 30, N,β,β-trimethyl-L-phenylalanyl-N^1-((1S,2E)-4-{(2S)-2-[(1R,2R)-1,3-dimethoxy-2-methyl-3-oxopropyl]pyrrolidin-1-yl}-1-isopropyl-3-methyl-4-oxobut-2-enyl)-N^1,3-dimethyl-L-valinamide]: in assay [1], the “Tubulin Polym. % inhibition at 0.3 uM” value stood at 45%. Besides, the IC50 was determined as 96 nM in the assay on KBV1 (Homo sapiens, KB-V1, 72 h); 6 nM in the assay with KB85 (72 h); 3.3 nM with KB cells (Homo sapiens, KB, 72 h). Moreover, in assay [2] (5 mg/kg IV on days 1, 5, 9), the “% T/C on day 7” value turned out to be 11%. In addition, in assay [2] (5 mg/kg IV on days 1, 5, 9, day 14), the “% T/C on day 14” value is listed as 3%.

For `CCOC(=O)/C(C)=C/[C@H](C(C)C)N(C)C(=O)[C@@H](NC(=O)[C@@H](C)C(C)(C)c1ccccc1)C(C)(C)C` [Example 91, Ethyl (E,4S)-4-[((2S)-2-{[(2S)-2,3-dimethyl-3-phenylbutanoyl]amino}-3,3-dimethylbutanoyl)(methyl)amino]-2,5-dimethyl-2-hexenoate], the “Tubulin Polym. % inhibition at 2 uM” value in assay [1] (2 uM) is listed as 84**** %. In addition, the IC50 is over 1000 nM in the assay with Colo205; over 3000 nM in the assay on KBV1 (Homo sapiens, KB-V1, 72 h); over 3000 nM in the assay on KB85 (72 h). In the assay with KB cells (Homo sapiens, 72 h), this compound gave an inhibition at 3 µM of 21%.
